According to patent publication US10646477B1, “5-substituted 2,4-thiazolidinediones (thiohydantoins), pseudothiohydantoins, and propseudothiohydantoins for use as antiviral agents” (Jiva Pharma, Inc., priority 2015, dated 2020):
In brackets after ≈: the same amount, converted by molar mass. Read-outs that look alike come from different tables or passages of the source. Each block holds one molecule with its values, some of them ahead of it.

What was measured:
[1] = system: cells; experiment: Toxicity to the cells seen in the plaque reduction assay (FIG. 1); assay type: cell-based
Experimental: (§1) The concentrations were done in duplicate ranging from 1 mM to 10 mM and the average value is plotted for each concentration. At 2 days post infection the number of plaques were counted. The next day, the wells were collected (media and cells) and titered in a plaque assay.
FIG. 1: Both Compound 2 (JIVA-0042) and Compound 3 (JIVA-005) appeared to show toxicity at 10 mM, so even if the graphs show almost 100% reduction at this concentration, it is due to toxicity, perhaps cytostatic inhibition of the cells and thus very few or small plaques were observed. However, by 5 mM of Compound 2 (JIVA-0042), the cells look good (no toxicity) and >95% plaque reduction for Compound 2 and a 50% reduction for Compound 3 (JIVA-005), with the plaques still smaller than the control no drug plaques.

[2] = CellTiter-Glo toxicity (CC50), U of Alabama / NIH
[3] = system: HSV-2; experiment: Viral yield reduction assay relative to mock treated controls, LSU; assay type: cell-based, Herpes simplex virus type 2
From the text: (§2) General Outline of in vitro biology Study: The overall goal of this study was to perform a preliminary evaluation of gross toxicity as well as antiviral effectiveness against HSV-1 and HSV-2, and VZV virus of several pharmaceutical preparations. The HSV-1 and HSV-2 antiviral activity in an in vitro infection system was studied, at the Louisiana State University, Health Sciences System, in New Orleans, and all three above at the University of Alabama, NIAID sponsored laboratories.
(§3) The yield reduction assay (YRA) was used in determining antiviral activity of test compounds such as JIVA Compounds, controls and standards. The virus yield reduction assay is a powerful technique for evaluating the efficacy of antiviral compounds. Monolayer cultures of mammalian cells were grown in 96-well microliter tissue culture plates and infected with virus. Test compounds were added and serially diluted directly with the plates. Following a cycle of virus replication, culture lysates were made and serially diluted in a separate set of uninfected cultures grown in microliter plates. The cultures were incubated, plaques were enumerated in wells containing […] plaques, and virus titers were calculated.

[4] = system: VZV; experiment: CellTiter-Glo (Cytopathic effect/Toxicity) antiviral assay, U of Alabama / NIH; assay type: cell-based, Varicella zoster virus; settings: for activity against the Varicella-Zoster virus: primary assays at the NIH
From the text: as §2

[5] = system: HSV-1 McKrae; experiment: McKrae viral yield reduction assay relative to mock treated controls, LSU; assay type: cell-based, Herpes simplex virus type 1
From the text: as §2, §3

[6] = system: HSV-1; experiment: CellTiter-Glo (Cytopathic effect/Toxicity) antiviral assay, U of Alabama / NIH; assay type: cell-based, Herpes simplex virus type 1
From the text: as §2

[7] = system: HSV-2; experiment: as above; assay type: cell-based, Herpes simplex virus type 2
From the text: as §2

[8] = system: Vero cell monolayers; experiment: Gross visible toxicity (CC50), 48 hour continuous treatment, LSU; assay type: cell-based; settings: tested at L (LSU-HSC)
From the text: as §2

[9] = system: HSV-2; experiment: Plaque reduction and virus yield reduction assay (FIGS. 1-6); assay type: cell-based, Herpes simplex virus type 2; set-up: Mean virus titer: unit not given here
Experimental: as §3, §1

[10] = Gross visible toxicity (CC50), 48 hour continuous treatment, LSU; assay type: cell-based; settings: African green monkey, Vero cell monolayers, tested at L (LSU-HSC)
From the text: as §2

[11] = system: HSV-2; experiment: In vitro HSV-2 tests using published formulations of 1-docosanol with surfactants; assay type: cell-based, Herpes simplex virus type 2; settings: published formulations with various surfactants
From the text: The alcohol intermediate, cis,cis,cis,cis,cis,cis-4,7,10,13,16,19-docosahexaenoic-1-ol obtained by reduction of DHA in the above series has the same chain-length as 1-docasonol, but has six conjugated-cis-double bonds for a stiff, elongated backbone, in contrast to a floppy backbone in saturated 1-docasanol.

[12] = system: HSV-2; experiment: Viral yield reduction assay (YRA), Cincinnati Children's Hospital Medical Center; assay type: cell-based, Herpes simplex virus type 2
Experimental: as §3
(§4) Another advantage was noted of thiazolidinedione compounds in Formula (I) where R is H, and R1 is an omega-3 PUFA derivative derived from DHA, EPA or ALA were provided to the Cincinnati Children's Hospital Medical Center, for in vitro HSV-2 antiviral activity by the viral yield reduction assay method, (YRA). […] For the DHA derived (JIVA-004), a ^˜44% reduction in virus yield was detected at 0.1 mM, and 22% reduction was detected at 0.01 mM. […] The more water soluble sodium salt of JIVA-004, in the YRA method, was toxic at the highest concentrations tested (10 mM to 7.5 mM).

[13] = system: healthy cells; assay type: cell-based
Experimental: as §4

[14] = cited from earlier work
[15] = system: cold sores caused by the herpes simplex virus; settings: OTC cream; cited from earlier work
[16] = Aqueous solubility; assay type: physicochemical; settings: water; at 3° C.
[17] = VZV line, tested at A (U of Alabama)
[18] = HSV-2, tested at L (LSU-HSC), read-out: EC50
[19] = VZV, tested at A (U of Alabama), read-out: EC50
[20] = HSV-1, tested at L (LSU-HSC), read-out: EC50
[21] = 10 mM, said to be due to toxicity
[22] = CC50, HSV-1 line, tested at A (U of Alabama)
[23] = CC50, HSV-2 line, tested at A (U of Alabama)
[24] = CC50, VZV line, tested at A (U of Alabama)
[25] = Human alphaherpesvirus 2, HSV-2, tested at L (LSU-HSC), read-out: EC50
[26] = Human alphaherpesvirus 1, HSV-1, tested at L (LSU-HSC), read-out: EC50
[27] = Human alphaherpesvirus 1, HSV-1, tested at A (U of Alabama), read-out: EC50
[28] = Human alphaherpesvirus 2, HSV-2, tested at A (U of Alabama), read-out: EC50

Compound: CN(C)C(=N)NC(=N)N.O=C1CSC(=O)N1 [JIVA-005]
toxicity ([1]; 10 mM): toxicity
CC50 ([2]; HSV-1 line, tested at A (U of Alabama)): > 150 µM
CC50 ([2]; HSV-2 line, tested at A (U of Alabama)): > 150 µM
CC50 [2, 17]: > 150 µM
EC50 [3, 18]: ~700 µM
EC50 [4, 19]: 0.09 µM
activity against the Varicella-Zoster virus [4]: highly active
EC50 [5, 20]: ~625 µM
EC50 ([6]; HSV-1, tested at A (U of Alabama), read-out: EC50): > 150 µM
EC50 ([7]; HSV-2, tested at A (U of Alabama), read-out: EC50): > 150 µM
CC50 ([8]; HSV-2 line): > 10000 µM
Mean virus titer ([9]; 1 mM): 6.24
Mean virus titer ([9]; 2.5 mM): 5.90
reduction in virus yield ([9]; 2.5 mM): very little reduction
Mean virus titer ([9]; 5 mM): 4.92
plaque reduction ([9]; 5 mM): 50%
Mean virus titer ([9]; 7.5 mM): 3.86
Mean virus titer ([9]; 10 mM): 2.87
plaque reduction [9, 21]: ~100%
EC50 ([9]; Excel, best fit line (FIGS. 4 and 5), read-out: estimated EC50): ~4000 µM
EC50 ([9]; Prism program (FIG. 6), read-out: calculated EC50): 5040 µM

Compound: NC1=NC(=O)CS1 [JIVA-0048, Pseudothiohydantoin]
EC50 [3, 18]: 76 µM
EC50 [5, 20]: 296 µM
CC50 ([8]; HSV-1 line): 19400 µM
CC50 ([8]; HSV-2 line): 19400 µM

melting point: 178 °C
Compound: N=C(N)SC(F)C(=O)O (centres unmarked) [JIVA-0043, RS-(Carbamimidoylsulfanyl)(fluoro)acetic acid]
CC50 [2, 22]: > 150 µM
CC50 [2, 23]: > 150 µM
CC50 [2, 24]: > 150 µM
EC50 [3, 25]: > 150 µM
EC50 ([4]; Human alphaherpesvirus 3, VZV, tested at A (U of Alabama), read-out: EC50): < 0.05 µM
activity against the Varicella-Zoster virus [4]: highly active
EC50 [5, 26]: > 150 µM
EC50 [6, 27]: > 150 µM
EC50 [7, 28]: > 150 µM
CC50 at 48 h ([10]; HSV-1 line): ~1000 µM
CC50 at 48 h ([10]; HSV-2 line): > 1000 µM

melting point: 230 °C (dec.)
Compound: N=C(N)SC(C(=O)O)c1ccccc1 (centres unmarked) [JIVA-0045, RS-2-[Amino(imino)methylsulfenyl]-2-phenylacetic acid]
CC50 [2, 22]: > 150 µM
CC50 [2, 23]: > 150 µM
EC50 [3, 25]: ~750 µM
EC50 [5, 26]: 238 µM
EC50 [6, 27]: > 150 µM
EC50 [7, 28]: > 150 µM
CC50 at 48 h ([10]; HSV-1 line): 3600 µM
CC50 at 48 h ([10]; HSV-2 line): 3600 µM

Compound: CC/C=C\C/C=C\C/C=C\C/C=C\C/C=C\C/C=C\CCCO [DHA derived primary alcohol, cis,cis,cis,cis,cis,cis-4,7,10,13,16,19-docosahexaenoic-1-ol]
antiviral activity [11]: ineffective

melting point: 244 to 246 °C
Compound: N=C1NC(=O)C(c2ccccc2Cl)S1 (centres unmarked) [JIVA-0046, RS-2-Imino-5-(2′-chlorophenyl) thiazolidine-4-one]
CC50 [2, 22]: > 150 µM
CC50 [2, 23]: > 150 µM
EC50 [3, 25]: ~1000 µM
EC50 [5, 26]: 2000 µM
EC50 [6, 27]: > 150 µM
EC50 [7, 28]: > 150 µM
CC50 at 48 h ([10]; HSV-1 line): ~1000 µM
CC50 at 48 h ([10]; HSV-2 line): ~1000 µM

Compound: CN(C)C(=N)NC(=N)N.Cl [Met.HCl, 1,1-dimethylbiguanide hydrochloride, reference compound]
Mean virus titer ([9]; 1 mM): 5.98
Mean virus titer ([9]; 2.5 mM): 6.05
Mean virus titer ([9]; 5 mM): 5.76
Mean virus titer ([9]; 7.5 mM): 4.97
Mean virus titer ([9]; 10 mM): 4.32
EC50 ([9]; Human alphaherpesvirus 2, read-out: estimated EC50): ~5000 µM

Compound: CN(C)C(=N)NC(=N)N.N=C1NC(=O)CS1 [JIVA-0049, Pseudothiohydantain Metforminate]
CC50 ([2]; HSV-1 line, tested at N (NIH)): > 300 µM
CC50 [2, 17]: ≥ 150 µM
EC50 [4, 19]: < 0.05 µM
activity against the Varicella-Zoster virus [4]: highly active
EC50 ([6]; HSV-1, tested at N (NIH), read-out: EC50): > 300 µM

Compound: CC/C=C\C/C=C\C/C=C\C/C=C\C/C=C\C/C=C\CCCC1SC(=O)NC1=O (centres unmarked) [JIVA-004, RS-5-((4Z,7Z,10Z,13Z,16Z,19Z)docosa-4,7,10,13,16,19-hexaen-1-yl)thiazolidine-2,4-dione]
reduction in virus yield ([12]; 0.01 mM): 22%
reduction in virus yield ([12]; 0.1 mM): ~44%
conservative estimated toxicity index CC50 [13]: 300 µM

melting point: 224 to 228 °C (dec.)
Compound: CC1SC(=N)NC1=O (centres unmarked) [JIVA-0044, RS-2-Imino-5-methylthiazolidine-4-one]
CC50 [2, 22]: > 150 µM
CC50 [2, 23]: > 150 µM
EC50 [3, 25]: 1400 µM
EC50 [5, 26]: 1420 µM
EC50 [6, 27]: > 150 µM
EC50 [7, 28]: > 150 µM
CC50 at 48 h ([10]; HSV-1 line): > 39000 µM
CC50 at 48 h ([10]; HSV-2 line): > 39000 µM

Compound: CCCCCCCCCCCCCCCCCCCCCCO [1-docosanol, 1-Docosanol]
antiviral activity [11]: ineffective
aqueous solubility [14]: near zero
mean time of healing [15]: 4.1 days

Compound: O=C1CSC(=O)N1 [JIVA-0042, 2,4-Thiazolidinedione]
toxicity ([1]; 5 mM): no toxicity
toxicity ([1]; 10 mM): toxicity
CC50 [2, 22]: > 150 µM
CC50 [2, 23]: > 150 µM
CC50 [2, 24]: 80 µM
EC50 ([3]; Human alphaherpesvirus 2): 1880 µM
EC50 ([4]; Human alphaherpesvirus 3): > 30 µM
EC50 ([5]; Human alphaherpesvirus 1): ~625 µM
EC50 ([6]; Human alphaherpesvirus 1): > 150 µM
solubility [16]: 30 mg/mL (≈ 256 mM)
EC50 ([7]; Human alphaherpesvirus 2): > 150 µM
CC50 at 48 h ([10]; HSV-1 line): > 14000 µM
CC50 at 48 h ([10]; HSV-2 line): > 14000 µM
antiviral effect ([9]; 1 mM): no antiviral effect
reduction in virus yield ([9]; 2.5 mM): 30%
plaque reduction ([9]; 5 mM): > 95%
plaque reduction [9, 21]: ~100%
EC50 ([9]; Human alphaherpesvirus 2, read-out: calculated EC50): 2930 µM
inhibition at 5000 µM ([9]; Human alphaherpesvirus 2, read-out: inhibition that can be contributed to Compound 2 activity): ~45%
